{"source": "patent US20070078434A1", "about": "“Indications For Local Transport of Anaesthetic Agents By Electrotransport Devices” (Vyteris, Inc., priority 2005, published 2007)", "key": {"[1]": {"settings": "codelivered with 300 mg of lidocaine; cited from earlier work"}, "anesthetized guinea pigs [2]": {"system": "anesthetized guinea pigs", "settings": "guinea pig, in vivo"}, "subjects": {"system": "subjects", "experiment": "Study 16: Platform IIA under various treatment conditions", "assay_type": "in vivo, human", "settings": "patches containing lidocaine 10% with and without epinephrine"}, "[3]": {"settings": "iontophoresis in vitro across human skin; cited from earlier work"}, "anesthetized guinea pigs [4]": {"system": "anesthetized guinea pigs", "experiment": "In vivo delivery of radiolabeled drug into anesthetized guinea pigs"}}, "note": "Where a name gives a salt, the structure may show the parent alone. Read-outs that look alike come from different tables or passages of the source.", "data": [{"smiles": "CNCC(O)c1ccc(O)c(O)c1", "note": "[epinephrine, 1,2 Beizenediol, 4-[1-hydroxy-2-(methylamino)ethyl]-,(R)—, [R—(R*,R*)]-2,3-dihydroxybutanedioate (1:1) (salt)]", "values": [{"measurement": "maximum recommended dose", "setting": "[1]", "value": 150, "unit": "µg"}, {"measurement": "amount delivered per patch", "setting": "anesthetized guinea pigs [2]", "value": 2.4, "unit": "µg"}, {"measurement": "effect of epinephrine on the anaesthetic effect of lidocaine", "setting": "subjects", "value": "significantly enhanced"}]}, {"smiles": "CCCN(CC)C(CC)C(=O)Nc1c(C)cccc1C", "note": "(stereo not shown) [etidocaine]", "values": [{"measurement": "cumulative delivery compared with lidocaine", "setting": "[3]", "value": "slightly greater delivery"}]}, {"smiles": "CCN(CC)CC(=O)Nc1c(C)cccc1C.Cl", "note": "[lidocaine, 2-(Diethylamino)-2′,6′-acetoxylidide mono hydrochloride, monohydrate]", "values": [{"measurement": "amount delivered per patch", "setting": "anesthetized guinea pigs [4]", "value": 467, "unit": "µg"}]}, {"smiles": "CCCNC(C)C(=O)Nc1ccccc1C", "note": "(stereo not shown) [prilocaine]", "values": [{"measurement": "cumulative delivery compared with lidocaine", "setting": "[3]", "value": "slightly greater delivery"}]}, {"smiles": "CCN(CC)CCOC(=O)c1ccc(N)cc1", "note": "[procaine]", "values": [{"measurement": "cumulative delivery compared with lidocaine", "setting": "[3]", "value": "slightly greater delivery"}]}]}
